Test results reported in patent US10501425B2, “Microbiocidal oxadiazole derivatives” (SYNGENTA PARTICIPATIONS AG, priority 2015, dated 2019).

Assays:
[1] = system: Puccinia recondita f. Sp. Tritici; assay: Puccinia recondita f. sp. tritici / wheat / leaf disc preventative (brown rust); type: in vivo; details: foliar, 200 ppm in the applied formulation, wheat leaf segments cv. Kanzler, preventative (inoculated 1 day after application), compared to untreated, read-out: disease control
Procedure: Leaf disks or leaf segments of various plant species are cut from plants grown in a greenhouse. The cut leaf disks or segments are placed in multiwell plates (24-well format) onto water agar. The leaf disks are sprayed with a test solution before (preventative) or after (curative) inoculation. Compounds to be tested are prepared as DMSO solutions (max. 10 mg/ml) which are diluted to the appropriate concentration with 0.025% Tween20 just before spraying. The inoculated leaf disks or segments are incubated under defined conditions (temperature, relative humidity, light, etc.) according to the respective test system. A single evaluation of disease level is carried out 3 to 14 days after inoculation, depending on the pathosystem. Percent disease control relative to the untreated check leaf disks or segments is then calculated. Wheat leaf segments cv. Kanzler were placed on agar in multiwell plates (24-well format) and sprayed with the formulated test compound diluted in water. The leaf disks were inoculated with a spore suspension of the fungus 1 day after application. The inoculated leaf segments were incubated at 19° C. and 75% relative humidity (rh) under a light regime of 12 hours light/12 hours darkness in a climate cabinet and the activity of a compound was assessed as percent disease control compared to untreated when an appropriate level of disease damage appears in untreated check leaf segments (7 to 9 days after application). The following compounds at 200 ppm in the applied formulation give at least 80% disease control in this test when compared to untreated control leaf disks under the same conditions, which show extensive disease development.

[2] = system: Puccinia recondita f. Sp. Tritici; assay: Puccinia recondita f. sp. tritici / wheat / leaf disc curative (brown rust); type: in vivo; details: foliar, 24 h, 200 ppm in the applied formulation, wheat leaf segments cv. Kanzler, curative (applied 1 day after inoculation), compared to untreated, read-out: disease control
Procedure: Leaf disks or leaf segments of various plant species are cut from plants grown in a greenhouse. The cut leaf disks or segments are placed in multiwell plates (24-well format) onto water agar. The leaf disks are sprayed with a test solution before (preventative) or after (curative) inoculation. Compounds to be tested are prepared as DMSO solutions (max. 10 mg/ml) which are diluted to the appropriate concentration with 0.025% Tween20 just before spraying. The inoculated leaf disks or segments are incubated under defined conditions (temperature, relative humidity, light, etc.) according to the respective test system. A single evaluation of disease level is carried out 3 to 14 days after inoculation, depending on the pathosystem. Percent disease control relative to the untreated check leaf disks or segments is then calculated.
Wheat leaf segments cv. Kanzler are placed on agar in multiwell plates (24-well format). The leaf segments are then inoculated with a spore suspension of the fungus. Plates were stored in darkness at 19° C. and 75% relative humidity. The formulated test compound diluted in water was applied 1 day after inoculation. The leaf segments were incubated at 19° C. and 75% relative humidity under a light regime of 12 hours light/12 hours darkness in a climate cabinet and the activity of a compound was assessed as percent disease control compared to untreated when an appropriate level of disease damage appears in untreated check leaf segments (6 to 8 days after application).
The following compounds at 200 ppm in the applied formulation give at least 80% disease control in this test when compared to untreated control leaf disks under the same conditions, which show extensive disease development.

[3] = system: Glomerella lacenarium (Colletotrichum lagenarium); assay: Glomerella lagenarium liquid culture / cucumber / preventative (anthracnose); type: cell-based; details: Colletotrichum orbiculare; 20 ppm in the applied formulation; liquid culture (PDB), growth inhibition measured photometrically 3 to 4 days after application; compared to untreated; read-out: disease control
Procedure: Mycelia fragments or conidia suspensions of a fungus prepared either freshly from liquid cultures of the fungus or from cryogenic storage, are directly mixed into nutrient broth. DMSO solutions of the test compound (max. 10 mg/ml) are diluted with 0.025% Tween20 by a factor of 50 and 10 μl of this solution is pipetted into a microtiter plate (96-well format). The nutrient broth containing the fungal spores/mycelia fragments is then added to give an end concentration of the tested compound. The test plates are incubated in the dark at 24° C. and 96% relative humidity. The inhibition of fungal growth is determined photometrically after 2 to 7 days, depending on the pathosystem, and percent antifungal activity relative to the untreated check is calculated.
Conidia of the fungus from cryogenic storage are directly mixed into nutrient broth (PDB—potato dextrose broth). After placing a (DMSO) solution of test compound into a microtiter plate (96-well format), the nutrient broth containing the fungal spores is added.
The following compounds at 20 ppm in the applied formulation give at least 80% disease control in this test when compared to untreated control under the same conditions, which show extensive disease development.

| SMILES | pest or weed control at 200 ppm [1] [%] | pest or weed control at 200 ppm [2] [%] | inhibition of growth at 20 ppm [3] [%] |
| --- | --- | --- | --- |
| COCCC(=O)NCc1ccc(-c2noc(C(F)(F)F)n2)cc1F [Compound 1.37, N-[[2-fluoro-4-[5-(trifluoromethyl)-1,2,4-oxadiazol-3-yl]phenyl]methyl]-3-methoxy-propanamide] | ≥ 80 | ≥ 80 | ≥ 80 |
| COCCCC(=O)NCc1ccc(-c2noc(C(F)(F)F)n2)c(F)c1 [Compound 1.40, N-[[3-fluoro-4-[5-(trifluoromethyl)-1,2,4-oxadiazol-3-yl]phenyl]methyl]-4-methoxy-butanamide] | ≥ 80 | ≥ 80 | ≥ 80 |
| COCCCC(=O)NCc1ccc(-c2noc(C(F)(F)F)n2)cc1F [Compound 1.42, N-[[2-fluoro-4-[5-(trifluoromethyl)-1,2,4-oxadiazol-3-yl]phenyl]methyl]-4-methoxy-butanamide] | ≥ 80 | ≥ 80 | ≥ 80 |
| N#CCC(=O)NCc1ccc(-c2noc(C(F)(F)F)n2)c(F)c1 [Compound 1.43, 2-cyano-N-[[3-fluoro-4-[5-(trifluoromethyl)-1,2,4-oxadiazol-3-yl]phenyl]methyl]acetamide] | ≥ 80 | ≥ 80 | ≥ 80 |
| N#CCC(=O)NCc1ccc(-c2noc(C(F)(F)F)n2)cc1F [Compound 1.45, 2-cyano-N-[[2-fluoro-4-[5-(trifluoromethyl)-1,2,4-oxadiazol-3-yl]phenyl]methyl]acetamide] | ≥ 80 | ≥ 80 | ≥ 80 |
| CC(C)C(=O)NCc1ccc(-c2noc(C(F)(F)F)n2)cc1Cl [Compound 1.50, N-[[2-chloro-4-[5-(trifluoromethyl)-1,2,4-oxadiazol-3-yl]phenyl]methyl]-2-methyl-propanamide] |  |  | ≥ 80 |
| CCCC(=O)NCc1ccc(-c2noc(C(F)(F)F)n2)cc1Cl [Compound 1.52, N-[[2-chloro-4-[5-(trifiuoromethyl)-1,2,4-oxadiazol-3-yl]phenyl]methyl]butanamide] |  |  | ≥ 80 |
| COCCC(=O)NCc1ccc(-c2noc(C(F)(F)F)n2)c(F)c1F [Compound 1.53, N-[[2,3-difluoro-4-[5-(trifluoromethyl)-1,2,4-oxadiazol-3-yl]phenyl]methyl]-3-methoxy-propanamide] | ≥ 80 | ≥ 80 | ≥ 80 |
| COCCC(=O)NCc1ccc(-c2noc(C(F)(F)F)n2)cc1Cl [Compound 1.55, N-[[2-chloro-4-[5-(trifluoromethyl)-1,2,4-oxadiazol-3-yl]phenyl]methyl]-3-methoxy-propanamide] |  |  | ≥ 80 |
| COCC(=O)NCc1ccc(-c2noc(C(F)(F)F)n2)cc1Cl [Compound 1.57, N-[[2-chloro-4-[5-(trifluoromethyl)-1,2,4-oxadiazol-3-yl]phenyl]methyl]-2-methoxy-acetamide] |  | ≥ 80 | ≥ 80 |
| CCC(C)C(=O)NCc1ccc(-c2noc(C(F)(F)F)n2)cc1Cl (stereo not shown) [Compound 1.58, N-[[2-chloro-4-[5-(trifluoromethyl)-1,2,4-oxadiazol-3-yl]phenyl]methyl]-2-methyl-butanamide] |  |  | ≥ 80 |
| COCCCC(=O)NCc1ccc(-c2noc(C(F)(F)F)n2)cc1Cl [Compound 1.60, N-[[2-chloro-4-[5-(trifluoromethyl)-1,2,4-oxadiazol-3-yl]phenyl]methyl]-4-methoxy-butanamide] | ≥ 80 | ≥ 80 | ≥ 80 |
| COCCCC(=O)NCc1ccc(-c2noc(C(F)(F)F)n2)c(F)c1F [Compound 1.61, N-[[2,3-difluoro-4-[5-(trifluoromethyl)-1,2,4-oxadiazol-3-yl]phenyl]methyl]-4-methoxy-butanamide] | ≥ 80 | ≥ 80 | ≥ 80 |
| N#CCC(=O)NCc1ccc(-c2noc(C(F)(F)F)n2)c(F)c1F [Compound 1.62, 2-cyano-N-[[2,3-difluoro-4-[5-(trifluoromethyl)-1,2,4-oxadiazol-3-yl]phenyl]methyl]acetamide] | ≥ 80 | ≥ 80 | ≥ 80 |
| CC(=O)NCc1ccc(-c2noc(C(F)(F)F)n2)cc1Cl [Compound 1.64, N-[[2-chloro-4-[5-(trifluoromethyl)-1,2,4-oxadiazol-3-yl]phenyl]methyl]acetamide] | ≥ 80 |  | ≥ 80 |
| COCC(=O)NCc1ccc(-c2noc(C(F)(F)F)n2)cc1C(F)(F)F [Compound 1.70, 2-methoxy-N-[[2-(trifluoromethyl)-4-[5-(trifiuoromethyl)-1,2,4-oxadiazol-3-yl]phenyl]methyl]acetamide] |  |  | ≥ 80 |
| N#CCC(=O)NCc1ccc(-c2noc(C(F)(F)F)n2)cn1 [Compound 1.73, 2-cyano-N-[[5-[5-(trifluoromethyl)-1,2,4-oxadiazol-3-yl]-2-pyridyl]methyl]acetamide] |  | ≥ 80 | ≥ 80 |
| CCCCCOC(=O)NCc1ccc(-c2noc(C(F)(F)F)n2)cc1 [Compound 2.9, pentyl N-[[4-[5-(trifluoromethyl)-1,2,4-oxadiazol-3-yl]phenyl]methyl]carbamate] | ≥ 80 |  |  |
| CCCCCOC(=O)NCc1ccc(-c2noc(C(F)(F)F)n2)cn1 [Compound 2.23, pentyl N-[[5-[5-(trifluoromethyl)-1,2,4-oxadiazol-3-yl]-2-pyridyl]methyl]carbamate] | ≥ 80 |  | ≥ 80 |
| CC(C)(C)COC(=O)NCc1ccc(-c2noc(C(F)(F)F)n2)cn1 [Compound 2.34, 2,2-dimethylpropyl N-[[5-[5-(trifluoromethyl)-1,2,4-oxadiazol-3-yl]-2-pyridyl]methyl]carbamate] |  | ≥ 80 | ≥ 80 |
| CC(C)(C)CNC(=O)NCc1ccc(-c2noc(C(F)(F)F)n2)cc1 [Compound 3.8, 1-(2,2-dimethylpropyl)-3-[[4-[5-(trifluoromethyl)-1,2,4-oxadiazol-3-yl]phenyl]methyl]urea] | ≥ 80 |  |  |
| CC(C)CNC(=O)NCc1ccc(-c2noc(C(F)(F)F)n2)cc1 [Compound 3.11, 1-isobutyl-3-[[4-[5-(trifluoromethyl)-1,2,4-oxadiazol-3-yl]phenyl]methyl]urea] | ≥ 80 |  | ≥ 80 |
| O=C(NCCCCl)NCc1ccc(-c2noc(C(F)(F)F)n2)cn1 [Compound 3.19] | ≥ 80 |  |  |
| CCCCNC(=O)NCc1ccc(-c2noc(C(F)(F)F)n2)cn1 [Compound 3.20, 1-butyl-3-[[5-[5-(trifluoromethyl)-1,2,4-oxadiazol-3-yl]-2-pyridyl]methyl]urea] | ≥ 80 |  | ≥ 80 |
